According to ChEMBL document CHEMBL1151928, “Identification of Hsp70 modulators through modeling of the substrate binding domain” (Bioorg Med Chem Lett, 2009):
Activity calls are given as the source filed them. The rule behind the calls is not given here.

How the values were obtained:
[1] = tested on: Hsp70 Ssa1p; assay: Activation of yeast Hsp70 Ssa1p ATP hydrolysis activity at 300 uM; conditions: Saccharomyces cerevisiae
[2] = tested on: Hsp70 Ssa1p; assay: Activation of yeast Hsp70 Ssa1p ATP hydrolysis activity at 300 uM in presence of ALLLSAPRR peptide; conditions: Saccharomyces cerevisiae

Activity [1]: Active
Activity [2]: Active
Structure (SMILES): CCOCCCN(C(C)=O)[C@@H](CC(C)C)C(=O)N[C@@H](CC(C)C)C(=O)NCCN1CCOCC1
